From patent US10604554B2, “Double-acylated GLP-1 derivatives” (Novo Nordisk A/S, priority 2012, dated 2020)

Assays:
human GLP-1 receptor = target: T1, human GLP-1 receptor (Homo sapiens, UniProt P43220); test: In vitro potency (AlphaScreen cAMP, membranes); assay type: biochemical
T1 construct: expressed in transfected cells; host or cells: BHK cells, clone FCW467-12A/KZ10-1 (parent line BHKTS13), further transfected with CRE luciferase
Method: The purpose of this example is to test the activity, or potency, of the GLP-1 derivatives in vitro.
Purified plasma membranes from a stable transfected cell line, BHK467-12A (tk-ts13), expressing the human GLP-1 receptor were stimulated with the GLP-1 analogue or derivative in question, and the potency of cAMP production was measured using the AlphaScreen™ cAMP Assay Kit from Perkin Elmer Life Sciences. The basic principle of the AlphaScreen Assay is a competition between endogenous cAMP and exogenously added biotin-cAMP. The capture of cAMP is achieved by using a specific antibody conjugated to acceptor beads.
A stable transfected cell line and a high expressing clone were selected for screening. The cells were grown at 5% CO2 in DMEM, 5% FCS, 1% Pen/Strep (Penicillin/Streptomycin) and 0.5 mg/ml of the selection marker G418.
Cells at approximately 80% confluence were washed 2× with PBS and harvested with Versene (aqueous solution of the tetrasodium salt of ethylenediaminetetraacetic acid), centrifuged 5 min at 1000 rpm and the supernatant removed. The additional steps were all performed on ice. The cell pellet was homogenised by the Ultrathurax for 20-30 s in 10 ml of Buffer 1 (20 mM Na-HEPES, 10 mM EDTA, pH=7.4), centrifuged 15 min at 20,000 rpm and the pellet resuspended in 10 ml of Buffer 2 (20 mM Na-HEPES, 0.1 mM EDTA, pH=7.4). The suspension was homogenised for 20-30 s and centrifuged 15 min at 20,000 rpm. Suspension in Buffer 2, homogenisation and centrifugation was repeated once and the membranes were resuspended in Buffer 2. The protein concentration was determined and the membranes stored at −80° C. until use.
The assay was performed in flat-bottom 96-well plates (Costar cat. no:3693). The final volume per well was 50 μl.
AlphaScreen cAMP Assay Kit from Perkin Elmer Life Sciences (cat. No: 6760625M); containing Anti-cAMP Acceptor beads (10 U/μl), Streptavidin Donor beads (10 U/μl) and Biotinylated-cAMP (133 U/μl).
AlphaScreen Buffer, pH=7.4: 50 mM TRIS-HCl (Sigma, cat.no: T3253); 5 mM HEPES (Sigma, cat.no: H3375); 10 mM MgCl2, 6H2O (Merck, cat.no: 5833); 150 mM NaCl (Sigma, cat.no: S9625); 0.01% Tween (Merck, cat.no: 822184). The following was added to the AlphaScreen Buffer prior to use (final concentrations indicated): BSA (Sigma, cat. no. A7906): 0.1%; IBMX (Sigma, cat. no. 15879): 0.5 mM; ATP (Sigma, cat. no. A7699): 1 mM; GTP (Sigma, cat. no. G8877): 1 uM.
cAMP standard (dilution factor in assay=5): cAMP Solution: 5 μL of a 5 mM cAMP-stock+495 μL AlphaScreen Buffer.
Membranes were prepared from hGLP-1/BHK 467-12A cells with a concentration of 6 μg/well corresponding to 0.6 mg/ml (the amount of membranes used pr. well may vary)
“No membranes”: Acceptor Beads (15 μg/ml final) in AlphaScreen buffer
“6 μg/well membranes”: membranes+Acceptor Beads (15 μg/ml final) in AlphaScreen buffer
An aliquot (10 μl) of “No membranes” was added to the cAMP standard (per well in duplicate wells) and the positive and negative controls
An aliquot (10 μl) of “6 μg/well membranes” was added to GLP-1 and analogues (per well in duplicate or triplicate wells)
Pos. Control: 10 μl “no membranes”+10 μl AlphaScreen Buffer
Neg. Control: 10 μl “no membranes”+10 μl cAMP Stock Solution (50 μM)
As the beads are sensitive to direct light, any handling was in the dark (as dark as possible), or in green light. All dilutions were made on ice.
1. Make the AlphaScreen Buffer.
2. Dissolve and dilute the GLP-1/Analogues/cAMP standard in AlphaScreen Buffer.
3. Make the Donor Beads Solution by mixing streptavidin donor beads (2 units/well) and biotinylated cAMP (1.2 units/well) and incubate 20-30 min in the dark at room temperature
4. Add the cAMP/GLP-1/Analogues to the plate: 10 μl per well.
5. Prepare membrane/Acceptor Beads solution and add this to the plates: 10 μl per well.
6. Add the Donor Beads: 30 μl per well.
7. Wrap the plate in aluminum foil and incubate on the shaker for 3 hours (very slowly) at RT.

[1] = tested on: Landrace Yorkshire Duroc (LYD) pigs; test: Pharmacodynamic (PD) study in pigs, food intake; assay type: in vivo, pig; conditions: single s.c. dose 3.0 nmol/kg
Method: The purpose of this experiment was to investigate the effect of a couple of Example compounds on food intake in pigs. This was done in a pharmacodynamic (PD) study as described below, in which food intake was measured from 1 to 4 days after administration of a single dose of the GLP-1 derivative, as compared to a vehicle-treated control group.
Female Landrace Yorkshire Duroc (LYD) pigs, approximately 3 months of age, weighing approximately 30-35 kg were used (n=3-4 per group). The animals were housed in a group for approximately 1 week during acclimatisation to the animal facilities. During the experimental period the animals were placed in individual pens at least 2 days before dosing and during the entire experiment for measurement of individual food intake. The animals were fed ad libitum with pig fodder (Svinefoder Danish Top) at all times both during the acclimatisation and the experimental period. Food intake was monitored on line by logging the weight of fodder every 15 minutes. The system used was Mpigwin (Ellegaard Systems, Faaborg, Denmark).
The phosphate buffer serves as vehicle. Animals are dosed with a single subcutaneous dose of the GLP-1 derivative or vehicle (dose volume 0.025 ml/kg) on the morning of day 1, and food intake is measured for 1 day after dosing. On the last day of each study, 1-4 days after dosing, a blood sample for measurement of plasma exposure of the GLP-1 derivative is taken from the heart in anaesthetised animals. The animals are thereafter euthanised with an intra-cardial overdose of pentobarbitone.
Food intake is calculated as mean±SEM food intake in 24 h intervals (0-24 h, 24-48 h, and 48-72 h). In Table 6 below the food intake is indicated as percentage of the food intake of the vehicle group in the same time interval (dosage 3.0 nmol/kg).
Statistical comparisons of the food intake in the 24 h intervals in the vehicle vs. GLP-1 derivative group are done using two-way-ANOVA repeated measures, followed by Bonferroni post-test.

[2] = Pharmacokinetic (PK) study in rat; conditions: male, Sprague Dawley, in vivo, iv, 6 nmol/kg
[3] = Pharmacokinetic (PK) study in minipig; conditions: male, Göttingen, in vivo, iv
Method: The purpose of this study is to determine the protraction in vivo of the GLP-1 derivatives after i.v. administration to minipigs, i.e. the prolongation of their time of action. This is done in a pharmacokinetic (PK) study, where the terminal half-life of the derivative in question is determined. By terminal half-life is generally meant the period of time it takes to halve a certain plasma concentration, measured after the initial distribution phase.
Study A: Male Göttingen minipigs were obtained from Ellegaard Göttingen Minipigs (Dalmose, Denmark) approximately 7-14 months of age and weighing from approximately 16-35 kg were used in the studies. The minipigs were housed individually and fed restrictedly once or twice daily with SDS minipig diet (Special Diets Services, Essex, UK). After at least 2 weeks of acclimatisation two permanent central venous catheters were implanted in vena cava caudalis or cranialis in each animal. The animals were allowed 1 week recovery after the surgery, and were then used for repeated pharmacokinetic studies with a suitable wash-out period between successive GLP-1 derivative dosings.
The animals were fasted for approximately 18 h before dosing and from 0 to 4 h after dosing, but had ad libitum access to water during the whole period.
The GLP-1 derivatives were dissolved in 50 mM sodium phosphate, 145 mM sodium chloride, 0.05% tween 80, pH 7.4 to a concentration of usually from 20-60 nmol/ml. […] Blood samples (for example 0.8 ml) were collected in EDTA buffer (8 mM) and then centrifuged at 4° C. and 1942 G for 10 minutes.
Study B: Male Göttingen minipigs were obtained from Ellegaard Göttingen Minipigs (Dalmose, Denmark) approximately 5 months of age and weighing from approximately 9 kg were used in the studies. The minipigs were housed in pens with straw as bedding, six together in each pen and fed restrictedly once or twice daily with Altromin 9023 minipig diet (Chr. Petersen A/S, DK-4100 Ringsted) or Standard SMP(E) minipig diet (Special Diet Services (SDS), UK). The pigs were used for repeated pharmacokinetic studies with a suitable wash-out period between successive GLP-1 derivative dosings.
The GLP-1 derivatives were dissolved in 50 mM sodium phosphate, 145 mM sodium chloride, 0.05% tween 80, pH 7.4 to a concentration of usually from 20-60 nmol/ml. Intravenous injections (the volume corresponding to usually 2 nmol/kg, for example 0.1 ml/kg) of the compounds were given as intravenous injections via a Venflon inserted in an ear vein, while they are placed unanaesthetised in a sling. The dose volume was 0.1 ml/kg, and blood was sampled at predefined time points for up till 17 days post dosing (samples was taken with syringe from a jugular vein).
Individual plasma concentration-time profiles were analyzed by a non-compartmental model in Phoenix WinNonLin ver. […] (Pharsight Inc., Mountain View, Calif., USA), and the resulting terminal half-lives (harmonic mean) determined.

T1 sequence (P43220 24-463): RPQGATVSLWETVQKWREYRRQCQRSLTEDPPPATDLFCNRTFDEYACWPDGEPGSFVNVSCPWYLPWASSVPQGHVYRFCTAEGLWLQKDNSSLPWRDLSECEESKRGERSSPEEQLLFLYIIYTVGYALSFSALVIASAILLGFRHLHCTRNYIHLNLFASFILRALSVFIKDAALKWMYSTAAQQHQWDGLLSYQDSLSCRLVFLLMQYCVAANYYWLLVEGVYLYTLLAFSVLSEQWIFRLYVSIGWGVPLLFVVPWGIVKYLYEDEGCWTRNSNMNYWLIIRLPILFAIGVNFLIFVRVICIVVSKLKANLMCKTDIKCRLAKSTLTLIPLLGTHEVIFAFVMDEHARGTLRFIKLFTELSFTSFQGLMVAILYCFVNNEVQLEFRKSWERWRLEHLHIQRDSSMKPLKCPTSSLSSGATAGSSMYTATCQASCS

**Q.** With `CC[C@H](C)[C@H](NC(=O)[C@H](Cc1ccccc1)NC(=O)[C@H](CCC(=O)O)NC(=O)[C@H](CCCCNC(=O)[C@@H](N)CCCCNC(=O)[C@@H](N)CCCCNC(=O)CC[C@H](NC(=O)CC[C@H](NC(=O)CCCCCCCCCCCOc1ccc(C(=O)O)cc1)C(=O)O)C(=O)O)NC(=O)[C@H](C)NC(=O)[C@H](C)NC(=O)[C@H](CCC(N)=O)NC(=O)CNC(=O)[C@H](CCC(=O)O)NC(=O)[C@H](CC(C)C)NC(=O)[C@H](Cc1ccc(O)cc1)NC(=O)[C@H](CO)NC(=O)[C@H](CO)NC(=O)[C@@H](NC(=O)[C@H](CC(=O)O)NC(=O)[C@H](CO)NC(=O)[C@@H](NC(=O)[C@H](Cc1ccccc1)NC(=O)[C@@H](NC(=O)CNC(=O)[C@H](CCC(=O)O)NC(=O)C(C)(C)NC(=O)[C@@H](N)Cc1c[nH]cn1)[C@@H](C)O)[C@@H](C)O)C(C)C)C(=O)N[C@@H](C)C(=O)N[C@@H](Cc1c[nH]c2ccccc12)C(=O)N[C@@H](CC(C)C)C(=O)N[C@H](C(=O)N[C@@H](CCCNC(=N)N)C(=O)NCC(=O)N[C@@H](CCCNC(=N)N)C(=O)N[C@@H](CCCCNC(=O)[C@@H](N)CCCCNC(=O)[C@@H](N)CCCCNC(=O)CC[C@H](NC(=O)CC[C@H](NC(=O)CCCCCCCCCCCOc1ccc(C(=O)O)cc1)C(=O)O)C(=O)O)C(=O)O)C(C)C` [Example 16, N^ε26-[(2S)-2-amino-6-[[(2S)-2-amino-6-[[(4S)-4-carboxy-4-[[(4S)-4-carboxy-4-[12-(4-carboxyphenoxy)dodecanoylamino]butanoyl]amino]butanoyl]amino]hexanoyl]amino]hexanoyl], N^ε37-[(2S)-2-amino-6-[[(2S)-2-amino-6-[[(4S)-4-carboxy-4-[[(4S)-4-carboxy-4-[12-(4-carboxyphenoxy)dodecanoylamino]butanoyl]amino]butanoyl]amino]hexanoyl]amino]hexanoyl]-[Aib^8,Arg^34,Lys^37]-GLP-1-(7-37)-peptide] as the compound, how does the EC50 (human GLP-1 receptor) read?
**A.** 0.154 nM

**Q.** And the “PD in pig, food intake (% of vehicle) for hours 0-24” value ([1]; 0-24 h)?
**A.** 33 % of vehicle

**Q.** And the “PD in pig, food intake (% of vehicle) for hours 24-48” value ([1]; 24-48 h)?
**A.** 43 % of vehicle

**Q.** And the half-life [2]?
**A.** 17 h

**Q.** What about the half-life [3] of the same compound?
**A.** 64 h

**Q.** With `CC[C@H](C)[C@H](NC(=O)[C@H](Cc1ccccc1)NC(=O)[C@H](CCC(=O)O)NC(=O)[C@H](CCCCNC(=O)[C@@H](N)CCCCNC(=O)[C@@H](N)CCCCNC(=O)CC[C@H](NC(=O)CCCCCCCCCCOc1ccc(C(=O)O)cc1)C(=O)O)NC(=O)[C@H](C)NC(=O)[C@H](C)NC(=O)[C@H](CCC(N)=O)NC(=O)CNC(=O)[C@H](CCC(=O)O)NC(=O)[C@H](CC(C)C)NC(=O)[C@H](Cc1ccc(O)cc1)NC(=O)[C@H](CO)NC(=O)[C@H](CO)NC(=O)[C@@H](NC(=O)[C@H](CC(=O)O)NC(=O)[C@H](CO)NC(=O)[C@@H](NC(=O)[C@H](Cc1ccccc1)NC(=O)[C@@H](NC(=O)CNC(=O)[C@H](CCC(=O)O)NC(=O)C(C)(C)NC(=O)[C@@H](N)Cc1c[nH]cn1)[C@@H](C)O)[C@@H](C)O)C(C)C)C(=O)N[C@@H](C)C(=O)N[C@@H](Cc1c[nH]c2ccccc12)C(=O)N[C@@H](CC(C)C)C(=O)N[C@H](C(=O)N[C@@H](CCCNC(=N)N)C(=O)NCC(=O)N[C@@H](CCCNC(=N)N)C(=O)N[C@@H](CCCCNC(=O)[C@@H](N)CCCCNC(=O)[C@@H](N)CCCCNC(=O)CC[C@H](NC(=O)CCCCCCCCCCOc1ccc(C(=O)O)cc1)C(=O)O)C(=O)O)C(C)C` [Example 20, N^ε26-[(2S)-2-amino-6-[[(2S)-2-amino-6-[[(4S)-4-carboxy-4-[11-(4-carboxyphenoxy)undecanoylamino]butanoyl]amino]hexanoyl]amino]hexanoyl], N^ε37-[(2S)-2-amino-6-[[(2S)-2-amino-6-[[(4S)-4-carboxy-4-[11-(4-carboxyphenoxy)undecanoylamino]butanoyl]amino]hexanoyl]amino]hexanoyl]-[Aib^8,Arg^34,Lys^37]-GLP-1-(7-37)-peptide] as the compound, how does the EC50 (human GLP-1 receptor) read?
**A.** 0.071 nM

**Q.** And the half-life [2]?
**A.** 14 h

**Q.** And the half-life [3]?
**A.** 59 h

**Q.** With `CC[C@H](C)[C@H](NC(=O)[C@H](Cc1ccccc1)NC(=O)[C@H](CCC(=O)O)NC(=O)[C@H](CCCCNC(=O)[C@@H](N)CCCCNC(=O)CC[C@H](NC(=O)CC[C@H](NC(=O)CC[C@H](NC(=O)CCCCCCCCCCCOc1ccc(C(=O)O)cc1)C(=O)O)C(=O)O)C(=O)O)NC(=O)[C@H](C)NC(=O)[C@H](C)NC(=O)[C@H](CCC(N)=O)NC(=O)CNC(=O)[C@H](CCC(=O)O)NC(=O)[C@H](CC(C)C)NC(=O)[C@H](Cc1ccc(O)cc1)NC(=O)[C@H](CO)NC(=O)[C@H](CO)NC(=O)[C@@H](NC(=O)[C@H](CC(=O)O)NC(=O)[C@H](CO)NC(=O)[C@@H](NC(=O)[C@H](Cc1ccccc1)NC(=O)[C@@H](NC(=O)CNC(=O)[C@H](CCC(=O)O)NC(=O)C(C)(C)NC(=O)[C@@H](N)Cc1c[nH]cn1)[C@@H](C)O)[C@@H](C)O)C(C)C)C(=O)N[C@@H](C)C(=O)N[C@@H](Cc1c[nH]c2ccccc12)C(=O)N[C@@H](CC(C)C)C(=O)N[C@H](C(=O)N[C@@H](CCCNC(=N)N)C(=O)NCC(=O)N[C@@H](CCCNC(=N)N)C(=O)N[C@@H](CCCCNC(=O)[C@@H](N)CCCCNC(=O)CC[C@H](NC(=O)CC[C@H](NC(=O)CC[C@H](NC(=O)CCCCCCCCCCCOc1ccc(C(=O)O)cc1)C(=O)O)C(=O)O)C(=O)O)C(=O)O)C(C)C` [Example 17, N^ε26-[(2S)-2-amino-6-[[(4S)-4-carboxy-4-[[(4S)-4-carboxy-4-[[(4S)-4-carboxy-4-[12-(4-carboxyphenoxy)dodecanoylamino]butanoyl]amino]butanoyl]amino]butanoyl]amino]hexanoyl], N^ε37-[(2S)-2-amino-6-[[(4S)-4-carboxy-4-[[(4S)-4-carboxy-4-[[(4S)-4-carboxy-4-[12-(4-carboxyphenoxy)dodecanoylamino]butanoyl]amino]butanoyl]amino]butanoyl]amino]hexanoyl]-[Aib^8,Arg^34,Lys^37]-GLP-1-(7-37)-peptide] as the compound, how does the EC50 (human GLP-1 receptor) read?
**A.** 0.286 nM

**Q.** What about the half-life [2] of the same compound?
**A.** 24 h

**Q.** What about the half-life [3] of the same compound?
**A.** 71 h
